Among the data in patent US7803801B2, “Aminopyridine compounds having Syk inhibitory activity” (Japan Tobacco, Inc., priority 2005, dated 2010) are IC50 values, retold here.

In general, IC50 refers to the concentration that gives 50% inhibition.

Bounds are passed on as bounds.

In experiment [1] the target is GST-Syk Full Protein (human) (Homo sapiens, UniProt P43405). Briefly: Syk kinase inhibition test (HTRF method). The following applies: HTRF, 100 μM ATP, 30 min room temperature, average; read-out: sykHTRF ave IC50. In kind it is biochemical. An outline of the steps: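 Human GST-Syk full-length (6.4 nM) phosphorylated biotin-EDPDYEWPSA-NH2 (250 nM) with 100 μM ATP in HEPES pH 7.0/MgCl2 buffer, 2% DMSO, 30 min at room temperature. EDTA stop, then HTRF detection (streptavidin-XL665, Eu anti-phosphotyrosine) after 1 h; 665/620 ratio read.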
In general terms: TR-FRET usually uses a lanthanide donor and a delayed reading to cut background.

The test system of experiment [2] is cultured human mast cells. In words: Degranulation inhibition test using cultured human mast cells (IgE cross-linking, β-Hexosaminidase release). In kind it is cell-based. The following applies: Mast cell; cultured human mast cells, anti-hIgE stimulation, β-Hexosaminidase index, average; read-out: human degranulation ave. IC50. On the procedure: Degranulation Inhibition Test Using Cultured Human Mast Cells
(1) Separation of Hematopoietic Stem Cells;
After 10 to 60 mL of umbilical cord blood collected with heparin was diluted with an equivalent amount of buffer (0.5% BSA, 2 mM EDTA/PBS-), it was superposed on Ficoll-Paque (Amersham Pharmacia Biotech) (Ficoll/Blood (1:2)) and mononuclear leukocyte fraction was collected by centrifuging it at 400 G (1350 rpm) 4° C. for 30 minutes. After centrifugal washing (1500 rpm, 5 min, 4° C.×3) with buffer, the number of cells was counted and 0.1 mL of CD34 Progenitor Cell Isolation Kit (Miltenyi Biotec), Reagent A1 (Fc blocking) was added for 1×10^8 cells. After agitation, 0.1 mL of Reagent A2 (CD34 antibody-hapten) was added (final volume 0.5 mL/1×10^8 cells) and incubated at 9° C. for further 15 minutes after agitation. After centrifugal washing (1500 rpm, 5 min, 4° C.×3), it was resuspeded in a buffer (0.4 mL) and 0.1 mL of Reagent B (anti hapten antibody-microbeads) was added and agitated (final volume 0.5 mL/1×10^8 cells) and incubated at 9° C. for further 15 minutes. After centrifugal washing (1500 rpm, 5 min, 4° C.×2), it was resuspeded in a buffer (0.5 mL) and loaded on CS column (Miltenyi Biotec) set in MACS (MAgnetic Cell Sorting system; Miltenyi Biotec, Daiichi Pure Chemicals) and washed with 30 mL of buffer to remove CD34^− cells. The column was separated from MACS and eluted with 30 mL of buffer and CD34^+ cells bound to the column were collected and used as a hematopoietic stem cell population.
(2) Acquisition of Human Mast Cells by Long-Term Culturing of Hematopoietic Stem Cells;
The CD34^+ cells separated in (1) were resuspended in Iscove's Modified Dulbecco's Medium (IMDM, Gibco) containing human (rh)SCF (1 μg/mL, Peprotech), rhIL-6 (0.5 μg/mL, Peprotech), rhIL-3 (10 ng/mL, Peprotech), 1% Insulin-Transferrin (Gibco), 5×10^−5M 2-ME (Gibco), 0.1% BSA (Sigma) in a density of 1×10^6 cells/ml and disseminated on 24-well culture plate with a dose of 0.1 mL/well and 0.9 ml of IMDM (Methocult SF^BIT StemCell technology) containing 0.9% methyl cellulose was added and culturing was started. The above culture medium (excluding methyl cellulose) was added in a week and after that 100 μL/well of the above culture medium (further excluding IL-3) was added at an interval of every once a week so that cells were diluted to maintain 10^5 cells/mL/well order and cultured more than about 8 weeks and thereby human culture mast cells were obtained.
(3) Expression Enhancement of FcεRI and Inhibition Test IgE Cross-Linking Stimulating Degranulation;
rhIL-4 (final concentration 1 ng/mL, R & D) and Homo sapiens(h) IgE (final concentration 0.5 μg/mL, CHEMICON) were added to the obtained human culture mast cells, and they were incubated for 5 days to enhance the expression of FcεRI. After incubation, cells were collected and, after centrifugal washing (IMDM), they were disseminated on 96-well culture plate in 5×10^4 cells/80 μL/well.
10 μL of a compound 10-fold diluted with IMDM after dissolved in DMSO (DMSO final concentration 0.1%) was added and reacted at 37° C. for 10 minutes. Further, 10 μL of anti-hIgE Ab (CHEMICON) adjusted to 100 μg/mL (final concentration 10 μg/mL) was added and degranulation was caused by being stimulated at 37° C. for 30 minutes. After centrifugation, 50 μL/well of the supernatant was collected and stored at −40° C. untill the quantity of degranulation was measured. The measurement of quantity of degranulation was performed using enzymatic activity of β-Hexosaminidase contained in the granulates as an index. That is, an equivalent amount of p-nitrophenyl-N-acetyl-β-D-glucosaminide (1 mM) (containing 0.1% Triton X-100) which is a substrate of β-Hexosaminidase was added to 50 μL of the culture filtrate, and after reacted at 37° C. for 2 hours, the reaction was terminated by using 100 μL of Carbonate buffer (0.1M, pH 10). […]

For `Cc1ccnc(Nc2cccc(-c3cnc([C@H](C)O)s3)n2)c1` [Compound A-26, (S)-1-{5-[6-(4-methylpyridin-2-ylamino)pyridin-2-yl]thiazol-2-yl}ethanol], the IC50 in experiment [1] was less than 100 nM; in experiment [2], 100 to 1000 nM.
In the same order, the values of `CC(=O)c1ncc(-c2cccc(Nc3cc(C)ccn3)n2)s1` [Compound A-27, 1-{5-[6-(4-methylpyridin-2-ylamino)pyridin-2-yl]thiazol-2-yl}ethanone] are less than 100 nM and 100 to 1000 nM.
Taken in the same sequence, the figures for `CCOC(=O)c1ncc(-c2cccc(Nc3cc(C)ccn3)n2)s1` [Compound A-28, 5-[6-(4-methylpyridin-2-ylamino)pyridin-2-yl]thiazole-2-carboxylic acid ethyl ester] were less than 100 nM and 100 to 1000 nM.
Taken in the same sequence, the figures for `Cc1ccnc(Nc2cccc(-c3cnc(C(=O)NCCO)s3)n2)c1` [Compound A-29] were 100 to 1000 nM and 100 to 1000 nM.
For the compound `CC(=NO)c1ncc(-c2cccc(Nc3cc(C)ccn3)n2)s1` [Compound A-30, 1-{5-[6-(4-methylpyridin-2-ylamino)pyridin-2-yl]thiazol-2-yl}ethanone oxime], the IC50 is less than 100 nM in experiment [1] and 100 to 1000 nM in experiment [2].
In the same order, the values of `Cc1ccnc(Nc2cccc(-c3cnc([C@H](C)NC(=O)C(C)C)s3)n2)c1` [Compound A-31] are 100 to 1000 nM and 100 to 1000 nM.
In the same order, the values of `Cc1ccnc(Nc2cccc(-c3cnc([C@H](C)NC(=O)[C@H](C)O)s3)n2)c1` [Compound A-32] are 100 to 1000 nM and 100 to 1000 nM.
In the same order, the values of `Cc1ccnc(Nc2cccc(-c3cnc([C@@H]4CCC(=O)O4)s3)n2)c1` [Compound A-33, (S)-5-{5-[6-(4-methylpyridin-2-ylamino)pyridin-2-yl]thiazol-2-yl}dihydrofuran-2-one] are less than 100 nM and 100 to 1000 nM.
As for `Cc1ccnc(Nc2cccc(-c3cnc(C(=O)NC(C)(C)CO)s3)n2)c1` [Compound A-34], the figures for the IC50 in experiment [1] and in experiment [2] were 100 to 1000 nM and greater than 1000 nM, respectively.
In the same order, the values of `C/C(=N\OCCO)c1ncc(-c2cccc(Nc3cc(C)ccn3)n2)s1` [Compound A-35, 1-{5-[6-(4-methylpyridin-2-ylamino)pyridin-2-yl]thiazol-2-yl}ethanone 0-(2-hydroxyethyl)oxime] are less than 100 nM and 100 to 1000 nM.
In the same order, the values of `Cc1ccnc(Nc2cccc(-c3cnc([C@@H](NC(=O)OC(C)(C)C)C(C)C)s3)n2)c1` [Compound A-36] are greater than 1000 nM and greater than 1000 nM.
Taken in the same sequence, the figures for `Cc1ccnc(Nc2cccc(-c3cnc([C@@H](N)C(C)C)s3)n2)c1` [Compound A-37] were 100 to 1000 nM and greater than 1000 nM.
As to `CC(=O)N[C@H](c1ncc(-c2cccc(Nc3cc(C)ccn3)n2)s1)C(C)C` [Compound A-38], the IC50 in experiment [1] and in experiment [2] was 100 to 1000 nM in each case.
`Cc1ccnc(Nc2cccc(-c3cnc([C@H](Cc4ccccc4)NC(=O)OC(C)(C)C)s3)n2)c1` [Compound A-39]: the IC50 in experiment [1] and in experiment [2] was greater than 1000 nM in each case.
Consider `Cc1ccnc(Nc2cccc(-c3cnc([C@@H](N)Cc4ccccc4)s3)n2)c1` [Compound A-40], for which the figures for the IC50 in experiment [1] and in experiment [2] were 100 to 1000 nM and greater than 1000 nM, respectively.
Consider `CC(=O)N[C@@H](Cc1ccccc1)c1ncc(-c2cccc(Nc3cc(C)ccn3)n2)s1` [Compound A-41], for which the IC50 in experiment [1] was 100 to 1000 nM; in experiment [2], greater than 1000 nM.
In the same order, the values of `Cc1ccnc(Nc2cccc(-c3cnc([C@@H]4CCCN4)s3)n2)c1` [Compound A-42] are 100 to 1000 nM and greater than 1000 nM.
As to `Cc1ccnc(Nc2cccc(-c3cnc([C@H](COCc4ccccc4)NC(=O)OC(C)(C)C)s3)n2)c1` [Compound A-43], the IC50 in experiment [1] and in experiment [2] was greater than 1000 nM in each case.
For the compound `Cc1ccnc(Nc2cccc(-c3cnc([C@@H](N)COCc4ccccc4)s3)n2)c1` [Compound A-44], the IC50 in experiment [1] and in experiment [2] was greater than 1000 nM each time.
In the case of `CC(=O)N[C@@H](COCc1ccccc1)c1ncc(-c2cccc(Nc3cc(C)ccn3)n2)s1` [Compound A-45], the IC50 in experiment [1] and in experiment [2] was greater than 1000 nM in each case.
`CON(C)C(=O)c1ncc(-c2cccc(Nc3cc(C)ccn3)n2)s1` [Compound A-46, N-methoxy-N-methyl-5-[6-(4-methylpyridin-2-ylamino)pyridin-2-yl]thiazole-2-carboxamide]: the IC50 in experiment [1] was less than 100 nM; in experiment [2], 100 to 1000 nM.
Consider `CNC(=O)c1ncc(-c2cccc(Nc3cc(C)ccn3)n2)s1` [Compound A-47, N-methyl-5-[6-(4-methylpyridin-2-ylamino)pyridin-2-yl]thiazole-2-carboxamide], for which the IC50 in experiment [1] was less than 100 nM; in experiment [2] it was 100 to 1000 nM.
Consider `CC(=O)N1CCC[C@H]1c1ncc(-c2cccc(Nc3cc(C)ccn3)n2)s1` [Compound A-48], for which the IC50 in experiment [1] and in experiment [2] was 100 to 1000 nM throughout.
For `Cc1ccnc(Nc2cccc(-c3cnc([C@H](CCCCNC(=O)OC(C)(C)C)NC(=O)OCc4ccccc4)s3)n2)c1` [Compound A-49], the IC50 in experiment [1] and in experiment [2] was greater than 1000 nM each time.
For `Cc1ccnc(Nc2cccc(-c3cnc([C@H](C)N(C)C(=O)OC(C)(C)C)s3)n2)c1` [Compound A-50], the IC50 is 100 to 1000 nM in experiment [1] and greater than 1000 nM in experiment [2].
Taken in the same sequence, the figures for `CN[C@@H](C)c1ncc(-c2cccc(Nc3cc(C)ccn3)n2)s1` [Compound A-51] were 100 to 1000 nM and 100 to 1000 nM.
`CC(=O)N(C)[C@@H](C)c1ncc(-c2cccc(Nc3cc(C)ccn3)n2)s1` [Compound A-52, N-methyl-((S)-1-{5-[6-(4-methylpyridin-2-ylamino)pyridin-2-yl]thiazol-2-yl}ethyl)acetamide]: the IC50 is less than 100 nM in experiment [1] and 100 to 1000 nM in experiment [2].
Taken in the same sequence, the figures for `Cc1ccnc(Nc2cccc(-c3cnc(C(=O)NCCCO)s3)n2)c1` [Compound A-53] were 100 to 1000 nM and 100 to 1000 nM.
Taken in the same sequence, the figures for `Cc1ccnc(Nc2cccc(-c3cnc(C(=O)NC(C)CO)s3)n2)c1` (stereo not drawn) [Compound A-54] were 100 to 1000 nM and greater than 1000 nM.
In the same order, the values of `Cc1ccnc(Nc2cccc(-c3cnc([C@@H]4CCC(=O)N4)s3)n2)c1` [Compound A-55, (S)-5-{5-[6-(4-methylpyridin-2-ylamino)pyridin-2-yl]thiazol-2-yl}pyrrolidin-2-one] are less than 100 nM and 100 to 1000 nM.
For the compound `Cc1ccnc(Nc2cccc(-c3cnc([C@H](C)NC(=O)N(C)C)s3)n2)c1` [Compound A-56], the IC50 in experiment [1] and in experiment [2] was 100 to 1000 nM in each case.
For the compound `COC(=O)N[C@@H](C)c1ncc(-c2cccc(Nc3cc(C)ccn3)n2)s1` [Compound A-57], the IC50 in experiment [1] and in experiment [2] was 100 to 1000 nM each time.
For `Cc1ccnc(Nc2cccc(-c3cnc([C@H](C)NS(C)(=O)=O)s3)n2)c1` [Compound A-58], the IC50 in experiment [1] and in experiment [2] was 100 to 1000 nM throughout.
